# Measured values: PMC4997316, “A ruthenium polypyridyl intercalator stalls DNA replication forks, radiosensitizes human cancer cells and is enhanced by Chk1 inhibition” (Scientific Reports, 2016)
# Assays:
# [1] = system: HeLa cervical cancer cells; experiment: cell viability with or without Chk1 inhibitor CHIR-124, HeLa; format: cell-based, human; conditions: plus CHIR-124 500 nM, 48 h constant exposure
# Method: (§1) With this in mind, and considering the strong Chk1 activation in response to 1, HeLa cervical cancer cells, which are […][44], were exposed to a combination of 1 plus the Chk1 inhibitor CHIR-124[45] and the impact of co-treatment upon cell viability determined. A non-cytotoxic dose of 500 nM CHIR-124 was used and results were compared to single-agent treatment. […] Minimal enhancement of the anti-proliferative effect of 2 by CHIR-124 was observed (Fig. S15b), in agreement with 2 operating via a Chk1-independent mechanism.
# (§2) Figure 5 Concurrent treatment of [Ru(dppz)2(PIP)]^2+ plus the Chk1 inhibitor CHIR-124 potentiates synergistic apoptosis in cancer cells. (a) Viability of HeLa (cervical cancer) or hSAEC1-KT (normal epithelial) cells after incubation with 1 in the absence or presence of Chk1 inhibitor CHIR-124 (500 nM) for 48 h constant exposure. […] (c) Quantification of apoptotic cells for experimental conditions as shown in (b). […] (f) Quantification of γH2AX foci from cells treated as in (e). […] Minimum of 150 cells counted per experiment. […]
# (§3) Cells were seeded in 96 well plates at 20,000 cells/well, allowed to proliferate for 24 h before treatment as described in the main text. […] The absorbance at 540 nm was quantified by plate reader (reference wavelength 650 nm). The metabolic activity of the cell population was determined as a percentage of a negative (solvent) control.
# HeLa cells [2] = experiment: quantification of apoptotic morphology (pyknosis/karyorrhexis); format: cell-based, human; conditions: single-agent treatment, 48 h (1 40 μM; CHIR-124 500 nM)
# Method: as §1
# Figure 5 Concurrent treatment of [Ru(dppz)2(PIP)]^2+ plus the Chk1 inhibitor CHIR-124 potentiates synergistic apoptosis in cancer cells. (a) Viability of HeLa (cervical cancer) or hSAEC1-KT (normal epithelial) cells after incubation with 1 in the absence or presence of Chk1 inhibitor CHIR-124 (500 nM) for 48 h constant exposure. (b) Morphological evidence for apoptosis (pyknosis/karyorrhexis, arrows) in HeLa cells treated with 40 μM 1 plus CHIR-124 for 48 h. Scale bars = 20 μm. (c) Quantification of apoptotic cells for experimental conditions as shown in (b). Equivalent results for 2 (40 μM, 48 h) included. Data mean of two independent experiments +/− SD. […] (f) Quantification of γH2AX foci from cells treated as in (e). […] Minimum of 150 cells counted per experiment. […]
# [3] = system: hSAEC1-KT human epithelial cells; experiment: cell viability with or without Chk1 inhibitor CHIR-124, hSAEC1-KT; format: cell-based; conditions: normal hSAEC1-KT cells, plus CHIR-124 500 nM, 48 h, any concentration of 1
# Method: as §1, §2, §3
# HeLa cells [4] = experiment: Trypan Blue exclusion assay; format: cell-based, human; conditions: 40 μM
# Method: HeLa cells were seeded in 6 well plates at 100,000 cells/well and allowed to proliferate for 24 h. Cell cultures were treated as stated, media containing detached/dead cells were removed and retained, adherent cells washed with PBS and detached with Trypsin. Adherent and detached cells for each sample were combined, concentrated via centrifugation and re-suspended in 0.5 ml PBS containing 0.04% Trypan Blue solution. Trypan Blue-negative and Trypan Blue-positive cells were counted by haemocytometer. A minimum of 200 cells were counted for each sample.
# HeLa cells [5] = experiment: cell-cycle analysis by PI flow cytometry; format: cell-based, human; conditions: 40 μM, 24 h
# Method: Figure 4 [Ru(dppz)2(PIP)]^2+ induces Chk1 checkpoint kinase activation and G1-S cell-cycle arrest. […] See SI for densitometry. (c) Cell-cycle distributions of HeLa cells incubated with DMSO (0.2%), 1 or 2 at the stated concentrations and time. DNA content was quantified using propidium iodide (PI) and analysed by flow cytometry. […] Data mean of three independent experiments +/− SD. […] They are copied as bare numbers, left to right. / The gate numbers in panel c are very small, so 3, 5, 6, 8 and 9 cannot be told apart with certainty. All the values below are best readings. / DMSO: 0.86, 57.4, 22.5, 16.8 uncertain / 1 (40 μM, 3 h): 0.46, 72.7, 13.5, 8.77 uncertain / 1 (40 μM, 8 h): 1.69, 73.2, 15.3, 3.6 uncertain / 1 (40 μM, 24 h): 1.2, 72.9, 15.8, 6.47 uncertain. […] 32.4 is partly overlapped by the peak line.
# Cells were washed with PBS and detached using Trypsin. After centrifugation at 1000 rpm for 5 min, cells were fixed in cold 70% ethanol for 30 mins, centrifuged and re-suspended in PBS. Samples were stained using 10 μg/ml propidium iodide (PI) and 200 μg/ml RNAase A for 30 mins before FACS analysis using a Biosciences LSRII Flow Cytometer. A minimum of 10,000 cells were counted for each sample and data were processed using FloJo software. […]
Structure (SMILES),cell viability on simultaneous treatment with CHIR-124 compared to either agent alone [1],morphological evidence of apoptosis (pyknosis/karyorrhexis) (HeLa cells [2]),impact on cell health on combination with CHIR-124 [3],HeLa cell growth (viable cell numbers) (HeLa cells [4]; 24–72 h treatment),"cytotoxicity (HeLa cells [4]; HeLa, up to 72 h, % total cells, read-out: non-viable (Trypan Blue positive) populations)",change in cell-cycle distribution compared to controls (HeLa cells [5])
"[Ru+2].c1ccc(-c2nc3c4cccnc4c4ncccc4c3[nH]2)cc1.c1ccc2nc3c4cccnc4c4ncccc4c3nc2c1.c1ccc2nc3c4cccnc4c4ncccc4c3nc2c1 [Complex 1, [Ru(dppz)2(PIP)]^2+]",significant decrease in cell viability,< 5%,no substantial impact on cell health,completely halts HeLa cell growth,< 20%,
"Oc1ccc(-c2nc3c4cccnc4c4ncccc4c3[nH]2)cc1.[Ru+2].c1ccc2nc3c4cccnc4c4ncccc4c3nc2c1.c1ccc2nc3c4cccnc4c4ncccc4c3nc2c1 [Complex 2, [Ru(dppz)2(p-HPIP)]^2+]",,,,,,no change in cell-cycle distribution
